Test results from publication PMC12564639, “Discovery of a Novel Anticoagulant Cystine Knot Peptide from Spider Venom Gland Transcriptome” (International Journal of Molecular Sciences, 2025).
Peptide text beside a SMILES is read from it.

Experiments:
[1] = biological target: T1, Human Activated Protein C (APC-1.0) (Homo sapiens, UniProt P04070); test: Bio-layer interferometry (BLI) binding; conditions: Octet R2, SA biosensors, biotinylated APC 10 µg/mL, GC38 3.125-50 μM, PBS with 0.02% Tween-20, association 300 s, dissociation 180 s, average of three, read-out: dissociation constant (KD)
T1 construct: purchased Enzyme Research Laboratories, Inc., South Bend, IN, USA APC-1.0
Excerpt: Human Activated Protein C (APC-1.0) was purchased from Enzyme Research Laboratories, Inc., South Bend, IN, USA. […] Activated Partial Thromboplastin Time (APTT) Test Kit (TC0306) was bought from Senkey Biotechnology Co., Ltd., Kunming, China. Prothrombin Time (PT) Test Kit (GMS10176) was purchased from GENMED Scientifics Inc., Shanghai, China. Streptavidin (SA) Biosensors (18-5019) were obtained from Sartorius AG, Göttingen, Lower Saxony, Germany. PBS (21-040-CVC) was bought from Corning Incorporated, Corning, NY, USA. Tween-20 (BS361B) was purchased from Biosharp Life Sciences, Hefei, Anhui, China. Trifluoroacetic acid (TFA, T818778-500ml, CAS: 76-05-1) and CaCl2 (C805225) were obtained from Macklin Biochemical Co., Ltd., Shanghai, China. L-oxidized glutathione (GSSG, V900363), Rose Bengal Dye (content 95%, CAS: 632-69-9, 330000-5G), and HEPES (V900477-500G) were purchased from Sigma-Aldrich LLC, St. Louis, MO, USA (Shanghai branch: Sigma-Aldrich Shanghai Trading Co., Ltd., Shanghai, China). […]
The binding affinity between APC and GC38 was measured using the Octet® R2 system (ForteBio, Fremont, CA, USA) with Streptavidin (SA) biosensors. […] Data were acquired and analyzed using Octet® Data Acquisition and Analysis software version 8.2. […]

[2] = tested on: human embryonic kidney cells (HEK293T); test: Cytotoxicity (CCK-8), HEK293T; assay type: cell-based; conditions: 24 h, n = 3
Method: The cytotoxicity of GC38 was evaluated in human embryonic kidney cells (HEK293T), human keratinocytes (HaCaT), and murine macrophage (RAW264.7) cell lines. The cells were from Kunming Cell Bank, Chinese Academy of Sciences. HEK293T and HaCaT cells were cultured in DMEM supplemented with 10% fetal bovine serum (FBS) and 1% penicillin-streptomycin, and RAW264.7 cells were maintained in RPMI 1640 containing 10% FBS and 1% penicillin–streptomycin, with all cell lines incubated at 37 °C under 5% CO2. For cytotoxicity assessment, cells were seeded at a density of 1 × 10^5 cells per well in 96-well plates and incubated for 12 h. […] After 24 h incubation, cell viability was determined using the CCK-8 assay (10 μL/well). Absorbance was measured at 450 nm using a multi-mode microplate reader (BioTek Synergy™ H1, Winooski, VT, USA). Untreated cells and cells treated with 10% DMSO served as negative and positive controls, respectively. Viability percentages were calculated relative to the untreated control. All experiments were conducted in triplicate, and data were expressed as mean ± SEM.

[3] = tested on: mouse red blood cells (RBCs); test: Hemolysis assay; assay type: cell-based; conditions: 50 μM; RBCs 1 × 10^8/mL in PBS, 37 °C, 30 min; absorbance 450 nm; versus 1% Triton X-100; n = 3
Method: The hemolytic activity of GC38 was assessed using mouse red blood cells (RBCs). Fresh […] blood was centrifuged at 1500 rpm for 5 min to isolate RBCs, followed by three washes with sterile PBS and resuspension in PBS with a density of 1 × 10^8 RBCs/mL. GC38 was diluted in PBS to concentrations ranging from 3.125 to 50 μM. For the assay, 100 µL of the RBC suspension was mixed with an equal volume of GC38 solution and incubated at 37 °C for 30 min. After incubation, the samples were centrifuged at 1500 rpm for 5 min to pellet intact RBCs. The absorbance of the supernatant was measured at 450 nm using a multi-mode microplate reader (BioTek Synergy™ H1, Winooski, VT, USA). PBS and 1% Triton X-100-treated groups served as negative and positive controls, respectively. The percentage of hemolysis was calculated by comparing the absorbance values of the samples to those of the controls. All concentrations underwent triplicate testing, with results presented as mean ± SEM.

Structure (SMILES): CSCC[C@@H]1NC(=O)[C@H](CC(N)=O)NC(=O)CNC(=O)CNC(=O)[C@H](Cc2c[nH]cn2)NC(=O)[C@H](CCCNC(=N)N)NC(=O)CNC(=O)[C@@H]2CSSC[C@@H]3NC(=O)[C@H](CCCNC(=N)N)NC(=O)[C@H](C)NC(=O)CNC(=O)[C@H](CCCCN)NC(=O)CNC(=O)[C@H](CO)NC(=O)[C@@H](NC(=O)CN)CSSC[C@H](NC(=O)[C@H](CSSC[C@@H](C(=O)N[C@@H](CCC(=O)O)C(=O)N[C@@H](Cc4c[nH]c5ccccc45)C(=O)N[C@@H](CC(N)=O)C(=O)N[C@@H](Cc4c[nH]c5ccccc45)C(=O)N[C@@H](CCCCN)C(=O)N[C@H](C(=O)NCC(=O)O)[C@@H](C)O)NC(=O)[C@H](CO)NC(=O)[C@H](CCCCN)NC(=O)[C@H](Cc4ccc(O)cc4)NC1=O)NC(=O)[C@H](CCCCN)NC(=O)[C@H](CO)NC(=O)[C@@H]1CCCN1C(=O)[C@H](C)NC3=O)C(=O)N[C@@H](CO)C(=O)NCC(=O)N[C@@H](CC(C)C)C(=O)N[C@@H](CO)C(=O)N2 [GC38] (HELM PEPTIDE1{G.C.S.G.K.G.A.R.C.A.P.S.K.C.C.S.G.L.S.C.G.R.H.G.G.N.M.Y.K.S.C.E.W.N.W.K.T.G}$PEPTIDE1,PEPTIDE1,2:R3-15:R3|PEPTIDE1,PEPTIDE1,9:R3-20:R3|PEPTIDE1,PEPTIDE1,14:R3-31:R3$$$V2.0)
- Kd [1]: 6.16 µM
- cell viability HEK293T ([2]; 50 μM, serum-free medium, CCK-8, 450 nm, relative to untreated control): greater than 95%
- cytotoxicity HEK293T ([2]; 0.1–50 μM, CCK-8): negligible cytotoxicity
- hemolytic activity [3]: below 3%
